This note sets out measurements from patent publication US7595401B2, “Therapeutic compounds and their use in cancer” (Myriad Pharmaceuticals, Inc., priority 2006, dated 2009).

In one assay the test system is purified human Hsp90. Briefly: Binding Assay: fluorescence polarization with BODIPY-labeled geldanamycin. The conditions noted are these: 5 μM compound, BODIPY-GM 10 nM, Hsp90 30 nM. The procedure, abridged: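 Fluorescence polarization competition with BODIPY-geldanamycin (10 nM final) and human Hsp90 (30 nM final) in HEPES-KOH pH 7.3 buffer with molybdate, NP-40, DTT; 2% DMSO, overnight at room temperature. Read 485/530 nm; percent inhibition from mP normalized to DMSO controls, fluorescent-compound points excluded.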
(In general: In fluorescence polarisation assays a small probe gives low polarisation when free and higher when bound to something large.)
Broadly, the % Inhibition is the percentage by which the read-out fell short of the control. A lower % Inhibition goes with a weak effect. On to `COc1cc(CCn2cnc(N)c3nc(Sc4cc(OC)ccc4OC)nc2-3)cc(OC)c1` [Example 194, 3-[2-(3,5-dimethoxy-phenyl)-ethyl]-8-(2,5-dimethoxy-phenylsulfanyl)-3H-purin-6-ylamine], for which the “% Inhibition at 5 μM Compound Concentration” value (shortened to “% Inhibition”) was 0%.
`Nc1ncn(CCCn2cccc2)c2nc(Sc3ccc4c(c3)OCO4)nc1-2` [Example 52, 8-(benzo[1,3]dioxol-5-ylsulfanyl)-3-(3-pyrrol-1-yl-propyl)-3H-purin-6-ylamine]: the “% Inhibition” value is given as 0%.
Still for that read-out and setting: for `CC(C)(NCCn1cnc(N)c2nc(Sc3cc4c(cc3Br)OCO4)nc1-2)c1ccccn1` [Example 333, 8-[(6-Bromo-1,3-benzodioxol-5-yl)thio]-3-{2-[(1-methyl-1-pyridin-2-ylethyl)amino]ethyl}-3H-purin-6-amine] the value was 43.0%.
Regarding `COc1ccc(OC)c(Sc2nc3c(N)ncnc3n2CC(c2ccc(Cl)cc2)C(C)C)c1` (stereo not drawn) [Example 119, 9-[2-(4-Chloro-phenyl)-3-methyl-butyl]-8-(2,5-dimethoxy-phenylsulfanyl)-9H-purine-6-ylamine], the “% Inhibition” value is given as 15%.
`N#CC1CCN(CCn2c(Sc3cc4c(cc3Br)OCO4)nc3ncnc(N)c32)CC1` [Example 576, 1-(2-{6-Amino-8-[(6-bromo-1,3-benzodioxol-5-yl)thio]-7 H-purin-7-yl}ethyl)piperidine-4 - carbonitrile]: the “% Inhibition” value turned out to be 31%.
The same measure, in the same setting: in the case of `Nc1ncn(CCc2ccccc2)c2nc(Sc3cc(OC(F)(F)F)ccc3Cl)nc1-2` [Example 229, 8-{[2-Chloro-5-(trifluoromethoxy)phenyl]thio}-3-(2-phenylethyl)-3H-purin-6-amine] it was 24%; in that of `COc1ccc(OC)c(Sc2nc3c(N)ncnc3n2CCc2ccc(C(=O)O)cc2)c1` [Example 81, 4-{2-[6-Amino-8-(2,5-dimethoxy-phenylsulfanyl)-purin-9-yl]-ethyl}-benzoic acid], 23%; in that of `COc1ccc(C#N)cc1Sc1nc2c(N)ncn(CCc3ccccc3)c-2n1` [Example 305, 3-{[6-Amino-3-(2-phenylethyl)-3H-purin-8-yl]thio}-4-methoxybenzonitrile], 29.0%.
`CC(C)(C)C(=O)N1CCC(CCn2cnc(N)c3nc(Sc4cc5c(cc4Br)OCO5)nc2-3)CC1` [Example 452, 8-[(6-Bromo-1,3-benzodioxol-5-yl)thio]-3-{2-[1-(2,2-dimethylpropanoyl)piperidin-4-yl]ethyl}-3H-purin-6-amine]: the “% Inhibition” value was determined as 21%.
Still for that read-out and setting: in the case of `CC(C)(C)OC(=O)N1CCCC(Cn2cnc(N)c3nc(Sc4cc5c(cc4Br)OCO5)nc2-3)C1` (stereo not drawn) [Example 642, tert-Butyl 3-({6-amino-8-[(6-bromo-1,3-benzodioxol-5-yl)thio]-3 H-purin-3-yl}methyl)piperidine-1-carboxylate] it was 15.00%; in that of `CC(C)(C)NC(=O)N1CCCC(CCn2cnc(N)c3nc(Sc4cc5c(cc4Br)OCO5)nc2-3)C1` (stereo not drawn) [Example 442, 3-(2-{6-Amino-8-[(6-bromo-1,3-benzodioxol-5-yl)thio]-3H-purin-3-yl}ethyl)-N-(tert-butyl)piperidine-1-carboxamide], 4%; in that of `CN(C)c1ccc(CCn2cnc(N)c3nc(Sc4cc5c(cc4Br)OCO5)nc2-3)cc1` [Example 188, 8-(6-bromo-benzo[1,3]dioxol-5-ylsulfanyl)-3-[2-(4-dimethylamino-phenyl)-ethyl]-3H-purin-6-ylamine], 21%.

The assay is the same for the next values; noted with them: BODIPY-GM 10 nM, Hsp90 30 nM.
In general, IC50 refers to the concentration needed to halve the response being measured. Low readings indicate higher potency, high ones lower potency. In turn, `CC(C)[C@H]1C[C@H](CCn2c(Sc3cc4c(cc3Br)OCO4)nc3c(N)ncnc32)CCN1C(=O)OC(C)(C)C` (relative stereo) [Example 428, tert-Butyl trans-4-(2-{6-amino-8-[(6-bromo-1,3-benzodioxol-5-yl)thio]-9H-purin-9-yl}ethyl)-2-isopropylpiperidine-1-carboxylate] yielded an IC50 of over 8000 nM.
Same read-out and setting: for `C[C@H](N)C(=O)N1CCC(CCn2c(Sc3cc4c(cc3Br)OCO4)nc3c(N)ncnc32)CC1` [Example 742, 9-(2-{1-[(2S)-2-Aminopropanoyl]piperidin-4-yl}ethyl)-8-[(6-bromo-1,3-benzodioxol-5-yl)thio]-9H-purin-6-amine] the value was 140 nM; for `Nc1ncn(CCCc2ccccc2)c2nc(Sc3cc4c(cc3Br)OCO4)nc1-2` [Example 44, 8-(6-bromo-benzo[1,3]dioxol-5-ylsulfanyl)-3-(3-phenyl-propyl)-3H-purin-6-ylamine], 27000 nM; for `CCNC(=O)N1CCC(CCn2c(Sc3cc4c(cc3Br)OCO4)nc3c(N)ncnc32)CC1` [Example 431, 4-(2-{6-Amino-8-[(6-bromo-1,3-benzodioxol-5-yl)thio]-9H-purin-9-yl}ethyl)-N-ethylpiperidine-1-carboxamide], 130 nM.
Still for that read-out and setting: in the case of `CC1(C)CC(CCn2c(Sc3cc4c(cc3Br)OCO4)nc3c(N)ncnc32)CC(C)(C)N1` [Example 354, 8-[(6-Bromo-1,3-benzodioxol-5-yl)thio]-9-[2-(2,2,6,6-tetramethylpiperidin-4-yl)ethyl]-9H-purin-6-amine] it was 250 nM; in that of `CC(=O)N1CCN(CCn2c(Sc3cc4c(cc3Br)OCO4)nc3c(N)ncnc32)CC1` [Example 382, 9-[2-(4-Acetylpiperazin-1-yl)ethyl]-8-[(6-bromo-1,3-benzodioxol-5-yl)thio]-9H-purin-6-amine], 140 nM; in that of `COc1ccc(OC)c(Sc2nc3c(N)ncnc3n2CCc2cccc(I)c2)c1` [Example 137, 8-(2,5-Dimethoxy-phenylsulfanyl)-9-[2-(3-iodo-phenyl)-ethyl]-9H-purin-6-ylamine], 210 nM.
Same read-out and setting: in the case of `COc1ccc(OC)c(Sc2nc3c(N)ncnc3n2CCc2ccc(C(C)=O)cc2)c1` [Example 63, 1-(4-{2-[6-Amino-8-(2,5-dimethoxy-phenylsulfanyl)-purin-9-yl]-ethyl}-phenyl)-ethanone] it was over 5000 nM; in that of `COc1ccc(OC)c(Sc2nc3c(N)ncnc3n2CCc2cc(C(F)(F)F)cc(C(F)(F)F)c2)c1` [Example 219, 9-[2-(3,5-Bistrifluoromethyl-phenyl)-ethyl]-8-(2,5-dimethoxy-phenylsulfanyl)-9H-purin-6-ylamine], over 8000 nM.
For `CCCNC(=N)N1CCC(CCn2c(Sc3cc4c(cc3Br)OCO4)nc3c(N)ncnc32)CC1` [Example 618, 4-(2-{6-Amino-8-[(6-bromo-1,3-benzodioxol-5-yl)thio]-9 H-purin-9-yl}ethyl)-N-propylpiperidine-1-carboximidamide], the IC50 stood at 41 nM. This lies in the double-digit nanomolar range.
On the same count and under the same terms, in the case of `COc1cc(CCn2c(Sc3cc4c(cc3Br)OCO4)nc3c(N)ncnc32)cc(OC)c1OC` [Example 91, 8-(6-Bromo-benzo[1,3]dioxol-5-ylsulfanyl)-9-[2-(3,4,5-trimethoxy-phenyl)-ethyl]-9H-purin-6-ylamine] it was 200 nM.
On the same count and under the same terms, in the case of `COC(=O)CCCNC(=O)N1CCCC(CCn2c(Sc3cc4c(cc3Br)OCO4)nc3c(N)ncnc32)C1` (stereo not drawn) [Example 503, Methyl 4-({[3-(2-{6-amino-8-[(6-bromo-1,3-benzodioxol-5-yl)thio]-9 H-purin-9-yl}ethyl)piperidin-1-yl]carbonyl}amino)butanoate] it was 190 nM.
